Among the data in US10294226B2, “Small molecule inhibitors of the JAK family of kinases” (Janssen Pharmaceutica NV, priority 2016, dated 2019) are IC50 and SIF solubility values, retold here.

Data set [1] addresses JAK1-JH1JH2 (Homo sapiens (Human), UniProt P23458). Nature of the data set: Enzymatic inhibition assay (HTMS). The class given is biochemical. The conditions noted are these: 12.5 μM ATP; read-out: JAK1_JH1JH2 IC50. An excerpt:
(§1) JAK1-JH1JH2 (574-1154 with a His-GST Tag and a C-terminal tev (ENLYFQ-G) cleavage site), JAK3-JH1JH2 (512-1124 with a GST Tag and a C-terminal tev (ENLYFQ-G) cleavage site), and Tyk2-JH1JH2 (8H_tev_580-1182-C936A-C1142A with a C-terminal tev (ENLYFQ-G) cleavage site) were purified internally. […] LC/MS grade water and acetonitrile (ACN), were purchased from HoneyWell, Burdick & Jackson (Muskegon, Mich., USA). Dimethylsulfoxide 99.8% (DMSO) and trifluoroacetic acid 99.5% (TFA) were purchased from EMD Chemical (Gibbstown, N.J., USA). Adenosine triphosphate (ATP), 4-morpholinepropanesulfonic acid (MOPS), magnesium chloride (MgCl2), ethylenediaminetetraacetic acid (EDTA), dithiothreitol (DTT), formic acid>95% (FA) and Tween-20 were purchased from Sigma (St Louis, Mo., USA). 384-well polypropylene plates, Cat#781280 were purchased from Greiner (Monroe, N.C.), RapidFire™ cartridge A C4 Column (Agilent Technologies, Santa Clara, Calif.).
(§2) The HTMS experiments were performed in positive ionization mode on a RapidFire 300 instrument (Agilent Technologies, Santa Clara, Calif.), coupled with an ABSiex QTrap 4000 system with an Electrospray Ionization source (RF-MS) (Concord, ON, Canada). […] The entire system was operated using the RapidFire software interfaced with Analyst software for the mass spectrometer.
(§3) 11-point dosing series were made for each compound by serially diluting 1:3 or 1:4 in DMSO, with point 12 being a DMSO control. From the serial dilution plates, sample was transferred to a 384 wells assay plate (#781280, Greiner, Monroe, N.C.) using Labcyte Echo (Sunnyvale, Calif.), or Biosero ATS (San Diego, Calif.). The compounds were tested in duplicate. Column 12 was used for positive controls, and column 24 contained negative controls with no enzyme added. A compound from our internal collection, with inhibitory activity for JAK isoforms, was used as a reference compound. The final concentration of DMSO was ≤0.25% in a 20 μL reaction. The enzyme reaction was initiated by the addition of 10 μL of enzyme and ATP mixture to 10 μL of substrate solution prepared in reaction buffer (50 mM MOPS pH 7.5, 10 mM MgCl2, 1 mM EDTA, 2 mM DTT, 0.002% Tween-20). The Tyk2 enzyme was pre-incubated with 2 mM ATP for 30 min prior to the reaction initiation. Immediately after the addition of the enzyme to the reaction mixture, the plate was centrifuged at 1000 rpm for 1 minute and incubated at 25° C. for 45 minutes for JAK3 and 90 minutes for JAK1, JAK2 and Tyk2. The reaction was quenched by the addition of 20 μL of 0.5% TFA containing 0.15 μM of internal standard peptide using Multidrop Combi reagent dispenser (Thermo Scientific, Waltham, Mass.). […] After the quench, the assay plate was centrifuged at 3000 rpm for 3 minutes and sealed with pierceable aluminum foil (Cat#06644-001, Agilent) using a PlateLoc (Agilent Technologies, Santa Clara, Calif.). The plates then were transferred on to the RapidFire for the MS analysis. Compound inhibition was assessed by a decrease of the phosphorylated product levels in sample wells compared to the non-inhibited enzyme reaction.
(§4) The sample analysis on the RapidFire was performed using a mobile phase A1 consisting of Water/TFA/FA (100:0.01:0.1, v/v/v), a mobile phase B1 consisting of ACN/Water/TFA/FA (80:20:0.01:0.1, v/v/v). […] The samples were aspirated directly from the 384-well assay plate and delivered onto RF-MS microscale solid-phase C4 extraction cartridge (Type A). The undesired component such as salt, cofactor, detergent and large protein were washed out and the retained analytes (substrate, product and IS) were coeluted directly onto the AB Siex Qtrap 4000 system.

For data set [2], the target named is Tyk2-JH1JH2 (Homo sapiens (Human), UniProt P29597, C1142A/C936A). Nature of the data set: Enzymatic inhibition assay (HTMS). The conditions noted are these: 50 μM ATP; read-out: Tyk2_I_JH1JH2 IC50. The class given is biochemical.
Description: as §1, §2, §3, §4

In data set [3] the target is JAK2-JH1JH2 (Homo sapiens (Human), UniProt O60674). Put plainly: Enzymatic inhibition assay (HTMS). The settings on record: 30 μM ATP; read-out: JAK2_I_JH1JH2 IC50. The data set is classed as biochemical.
Description: as §1, §2, §3, §4

In data set [4] the target is JAK3-JH1JH2 (Homo sapiens (Human), UniProt P52333). Put plainly: Enzymatic inhibition assay (HTMS). The settings on record: 150 μM ATP; read-out: JAK3_I_JH1JH2 IC50. The class given is biochemical.
Description: as §1, §2, §3, §4

Data set [5] relates to GM-CSF pSTAT5 (JAK2/JAK2). Put plainly: GM-CSF pSTAT5 (JAK2/JAK2) cellular assay, AlphaLISA in PBMCs. The class given is cell-based. The settings on record: PBMC, GM-CSF 11 pg/mL. Here is the method:
The AlphaLISA assay (based on Alpha Technology from PerkinElmer) was performed by first plating freshly thawed PBMCs (Biological Specialty Corporation) in 384-well plates at 30,000 cells per 4 μL per well in HBSS containing 0.1% IgG-free, protease-free BSA (Jackson ImmunoResearch Cat. No. 001-000-161). The cells were then treated with 2 μL/well of compounds diluted in DMSO at half-log titrated concentrations, with a highest test concentration of 10 μM and 0.5% final DMSO concentration, for thirty minutes at 37° C. Next, the cells were stimulated with 2 μL/well of GM-CSF (R&D Systems Cat. No. 215-GM-050) at 11 pg/mL for fifteen minutes at 37° C. The cellular reactions were terminated by the addition of 2 μL/well of lysis buffer (PerkinElmer Cat. No. ALSU-PST5-A10K) followed by an incubation of five minutes at room temperature. 5 μL/well of acceptor mix (PerkinElmer Cat. No. ALSU-PST5-A10K) was added to the cells and incubated in the dark for one hour at room temperature. Then, 5 μL/well of donor mix (PerkinElmer Cat. No. ALSU-PST5-A10K) was added to the cells and incubated in the dark overnight at room temperature. Finally, the plates were read on a PerkinElmer EnVision for detection of the time-resolved fluorescence signal. The percentage of GM-CSF-dependent pSTAT5 inhibition was determined at the compound test concentrations; and for each compound, a dose curve was generated and the IC50 was calculated. Compound IC50 was calculated by nonlinear regression, sigmoidal dose response analysis of the half-log dilution titration curve of the compound concentration vs. Alpha signal. The term “Alpha” is defined in the IL-2 pSTAT5 (JAK1/JAK3) cellular assay description.

The conditions of data set [6]: pH 6.5.

The structures appear in SMILES notation.

Sequence of JAK3-JH1JH2 (P52333 512-1124): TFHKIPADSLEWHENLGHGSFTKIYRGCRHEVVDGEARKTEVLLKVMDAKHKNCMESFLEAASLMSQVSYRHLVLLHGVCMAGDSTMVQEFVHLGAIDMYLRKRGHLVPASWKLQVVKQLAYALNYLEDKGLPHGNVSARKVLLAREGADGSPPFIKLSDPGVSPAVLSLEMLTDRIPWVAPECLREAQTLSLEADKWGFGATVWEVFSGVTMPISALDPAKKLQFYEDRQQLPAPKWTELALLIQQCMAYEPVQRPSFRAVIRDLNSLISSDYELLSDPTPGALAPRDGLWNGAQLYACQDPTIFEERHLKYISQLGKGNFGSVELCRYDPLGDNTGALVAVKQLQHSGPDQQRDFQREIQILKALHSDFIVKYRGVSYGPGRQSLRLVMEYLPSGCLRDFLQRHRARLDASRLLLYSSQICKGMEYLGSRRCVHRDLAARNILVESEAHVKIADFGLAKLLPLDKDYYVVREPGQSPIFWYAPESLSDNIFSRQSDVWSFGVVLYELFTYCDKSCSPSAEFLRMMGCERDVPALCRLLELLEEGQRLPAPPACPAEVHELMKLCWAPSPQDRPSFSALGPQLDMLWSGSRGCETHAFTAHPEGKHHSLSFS
Sequence of JAK1-JH1JH2 (P23458 574-1154): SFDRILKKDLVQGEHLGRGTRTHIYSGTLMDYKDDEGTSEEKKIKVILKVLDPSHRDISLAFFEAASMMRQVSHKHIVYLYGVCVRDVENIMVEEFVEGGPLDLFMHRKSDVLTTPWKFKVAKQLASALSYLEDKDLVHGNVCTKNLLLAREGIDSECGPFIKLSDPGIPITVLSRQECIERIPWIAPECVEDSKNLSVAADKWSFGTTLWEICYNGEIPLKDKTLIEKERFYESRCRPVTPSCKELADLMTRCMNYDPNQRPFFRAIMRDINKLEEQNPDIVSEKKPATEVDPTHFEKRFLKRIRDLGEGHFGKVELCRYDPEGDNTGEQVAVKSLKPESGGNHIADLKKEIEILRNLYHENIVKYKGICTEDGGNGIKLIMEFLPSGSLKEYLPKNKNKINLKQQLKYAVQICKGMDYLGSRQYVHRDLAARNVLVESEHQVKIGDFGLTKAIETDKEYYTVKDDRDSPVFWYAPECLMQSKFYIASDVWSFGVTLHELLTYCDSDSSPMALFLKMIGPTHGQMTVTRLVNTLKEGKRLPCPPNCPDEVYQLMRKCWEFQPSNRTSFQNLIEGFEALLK
Sequence of Tyk2-JH1JH2 (P29597 580-1182 C936A/C1142A): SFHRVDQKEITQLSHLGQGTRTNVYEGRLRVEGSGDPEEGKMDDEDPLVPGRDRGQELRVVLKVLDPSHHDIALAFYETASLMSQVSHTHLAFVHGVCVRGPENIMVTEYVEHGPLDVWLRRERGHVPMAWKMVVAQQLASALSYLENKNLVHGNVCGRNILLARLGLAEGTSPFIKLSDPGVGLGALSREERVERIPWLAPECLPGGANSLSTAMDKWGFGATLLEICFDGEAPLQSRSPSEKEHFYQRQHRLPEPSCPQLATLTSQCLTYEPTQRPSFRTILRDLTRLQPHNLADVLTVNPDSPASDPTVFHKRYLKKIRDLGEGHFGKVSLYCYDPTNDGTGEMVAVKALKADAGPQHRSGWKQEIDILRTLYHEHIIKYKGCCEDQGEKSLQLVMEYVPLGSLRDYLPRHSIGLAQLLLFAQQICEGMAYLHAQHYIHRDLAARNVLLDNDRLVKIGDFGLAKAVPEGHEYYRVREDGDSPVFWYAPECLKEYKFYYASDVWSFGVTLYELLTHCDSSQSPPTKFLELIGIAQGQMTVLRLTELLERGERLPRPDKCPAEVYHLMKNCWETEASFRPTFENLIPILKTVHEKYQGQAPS
Sequence of JAK2-JH1JH2 (O60674 532-1132): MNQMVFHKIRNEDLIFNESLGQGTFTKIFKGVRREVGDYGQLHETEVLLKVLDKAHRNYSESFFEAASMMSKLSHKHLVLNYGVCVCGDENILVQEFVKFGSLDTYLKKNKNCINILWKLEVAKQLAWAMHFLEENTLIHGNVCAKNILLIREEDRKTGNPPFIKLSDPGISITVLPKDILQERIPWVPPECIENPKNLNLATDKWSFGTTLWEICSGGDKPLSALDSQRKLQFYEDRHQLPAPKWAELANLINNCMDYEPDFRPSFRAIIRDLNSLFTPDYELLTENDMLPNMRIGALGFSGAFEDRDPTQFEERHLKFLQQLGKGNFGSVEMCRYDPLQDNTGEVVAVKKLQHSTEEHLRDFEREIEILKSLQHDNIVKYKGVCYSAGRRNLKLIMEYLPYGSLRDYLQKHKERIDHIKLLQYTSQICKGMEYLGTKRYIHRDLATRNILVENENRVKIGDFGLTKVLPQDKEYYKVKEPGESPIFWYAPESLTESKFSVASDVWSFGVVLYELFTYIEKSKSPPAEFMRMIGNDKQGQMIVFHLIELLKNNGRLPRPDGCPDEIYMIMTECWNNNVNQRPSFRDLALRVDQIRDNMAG

`N#CC[C@H]1CC[C@H](n2c(CC(=O)NC3CCOCC3)nc3cnc4[nH]ccc4c32)CC1` [Ex. 5, 2-(1-((1r,4r)-4-(Cyanomethyl)cyclohexyl)-1,6-dihydroimidazo[4,5-d]pyrrolo[2,3-b]pyridin-2-yl)-N-(tetrahydro-2H-pyran-4-yl)acetamide]: the half-inhibitory concentration (IC50) in data set [1] came out at 0.3 nM; in data set [2], 4.1 nM; in data set [3], 2.1 nM; in data set [4] it was 23.1 nM; in data set [5], 28.9 nM.

Consider `N#CCC12CCC(NC(=O)Cc3nc4cnc5[nH]ccc5c4n3[C@H]3CC[C@H](CC#N)CC3)(CC1)C2` [Ex. 10, N-(4-(Cyanomethyl)bicyclo[2.2.1]heptan-1-yl)-2-(1-((1r, 4r)-4-(cyanomethyl)cyclohexyl)-1,6-dihydroimidazo[4,5-d]pyrrolo[2,3-b]pyridin-2-yl)acetamide], for which the half-inhibitory concentration (IC50) in data set [1] came to 1 nM; in data set [2], 9 nM; in data set [3], 6.5 nM; in data set [4], 87.5 nM; in data set [5] it was 44.6 nM.

Regarding `N#CC[C@H]1CC[C@H](n2c(CC(=O)NCC3CC3)nc3cnc4[nH]ccc4c32)CC1` [Ex. 3, 2-(1-((1r,4r)-4-(Cyanomethyl)cyclohexyl)-1,6-dihydroimidazo[4,5-d]pyrrolo[2,3-b]pyridin-2-yl)-N-(cyclopropylmethyl)acetamide], the IC50 was found to be 0.2 nM in data set [1]; 11.6 nM in data set [2]; 6.2 nM in data set [3]; 82.8 nM in data set [4]; 21.9 nM in data set [5]. In data set [6], the SIF solubility was more than 400 µM.

For `N#CC[C@H]1CC[C@H](n2c(CC(=O)NCC3(O)CC3)nc3cnc4[nH]ccc4c32)CC1` [Ex. 12, 2-(1-((1r,4r)-4-(Cyanomethyl)cyclohexyl)-1,6-dihydroimidazo[4,5-d]pyrrolo[2,3-b]pyridin-2-yl)-N-((1-hydroxycyclopropyl)methyl)acetamide], the half-inhibitory concentration (IC50) in data set [1] was 0.9 nM; in data set [2], 8.7 nM; in data set [3] it was 9.4 nM; in data set [4] it was 101 nM; in data set [5], 75.4 nM. The SIF solubility in data set [6] was more than 400 µM.

Regarding `N#CC[C@H]1CC[C@H](n2c(CC(=O)NCC3CCOCC3)nc3cnc4[nH]ccc4c32)CC1` [Ex. 6, 2-(1-((1r,4r)-4-(Cyanomethyl)cyclohexyl)-1,6-dihydroimidazo[4,5-d]pyrrolo[2,3-b]pyridin-2-yl)-N-((tetrahydro-2H-pyran-4-yl)methyl)acetamide], the IC50 was 0.1 nM in data set [1]; 1.1 nM in data set [2]; 1.4 nM in data set [3]; 28.2 nM in data set [4]; 25.1 nM in data set [5]. For the same compound, the SIF solubility in data set [6] was more than 400 µM.

For the compound `N#CC[C@H]1CC[C@H](n2c(-c3c[nH]cn3)nc3cnc4[nH]ccc4c32)CC1` [Ex. 2, 2-((1r,4r)-4-(2-(1H-Imidazol-4-yl)imidazo[4,5-d]pyrrolo[2,3-b]pyridin-1(6H)-yl)cyclohexyl)acetonitrile], the IC50 in data set [2] is 1.5 nM; in data set [5], 61 nM. The compound further displayed an SIF solubility in data set [6] of more than 400 µM.

`N#CCCNC(=O)Cc1nc2cnc3[nH]ccc3c2n1[C@H]1CC[C@H](CC#N)CC1` [Ex. 4, N-(2-Cyanoethyl)-2-(1-((1r,4r)-4-(cyanomethyl)cyclohexyl)-1,6-dihydroimidazo[4,5-d]pyrrolo[2,3-b]pyridin-2-yl)acetamide]: the IC50 in data set [1] was determined as 0.1 nM; in data set [2], 2.2 nM; in data set [3], 6.6 nM; in data set [4], 96.2 nM; in data set [5], 119 nM. For the same compound, in data set [6], the SIF solubility is more than 400 µM.

In the case of `CC(C)(O)CNC(=O)Cc1nc2cnc3[nH]ccc3c2n1[C@H]1CC[C@H](CC#N)CC1` [Ex. 1, 2-(1-((1r,4r)-4-(Cyanomethyl)cyclohexyl)-1,6-dihydroimidazo[4,5-d]pyrrolo[2,3-b]pyridin-2-yl)-N-(2-hydroxy-2-methylpropyl)acetamide], the IC50 is 0.4 nM in data set [1]; 7.4 nM in data set [2]; 8.6 nM in data set [3]; 92.2 nM in data set [4]; 83.9 nM in data set [5].

Consider `N#CC[C@H]1CC[C@H](n2c(CC(=O)NCC3(O)CCC3)nc3cnc4[nH]ccc4c32)CC1` [Ex. 8, 2-(1-((1r,4r)-4-(Cyanomethyl)cyclohexyl)-1,6-dihydroimidazo[4,5-d]pyrrolo[2,3-b]pyridin-2-yl)-N-((1-hydroxycyclobutyl)methyl)acetamide], for which the IC50 in data set [1] is 0.4 nM; in data set [2], 6.6 nM; in data set [3], 7 nM; in data set [4], 75.6 nM; in data set [5], 33.8 nM. In data set [6], the SIF solubility was more than 400 µM.

Consider `CC(C)(C#N)CNC(=O)Cc1nc2cnc3[nH]ccc3c2n1[C@H]1CC[C@H](CC#N)CC1` [Ex. 7, N-(2-Cyano-2-methylpropyl)-2-(1-((1r,4r)-4-(cyanomethyl)cyclohexyl)-1,6-dihydroimidazo[4,5-d]pyrrolo[2,3-b]pyridin-2-yl)acetamide], for which the IC50 amounted to 0.2 nM in data set [1]; 4.8 nM in data set [2]; 5.6 nM in data set [3]; 98.4 nM in data set [4]; 67.3 nM in data set [5].
